Legend:
[1] = system: absorption of sodium from the intestinal lumen; experiment: Inhibition of intestinal sodium absorption: rat urinary sodium and fecal form 16 h post-dose; type: in vivo, Sprague-Dawley rats; details: for FFS (fecal form score): 16 h post-dose, scale 1-5, group average; for response vs control in vivo at 10 mg/kg / response vs control in vivo at 3 mg/kg: urine 16 h post-dose, read-out: uNa Result, uNa (% of vehicle)
Protocol: Urinary sodium concentration and fecal form were measured to assess the ability of selected example compounds to inhibit the absorption of sodium from the intestinal lumen. Eight-week old Sprague-Dawley rats were purchased from Charles River Laboratories (Hollister, Calif.), were housed 2 per cage, and acclimated for at least 3 days before study initiation. Animals were fed Harlan Teklad Global 2018 rodent chow (Indianapolis, Ind.) and water ad libitum throughout the study and maintained in a standard light/dark cycle of 6 AM to 6 PM. On the day of the study, between 4 PM and 5 PM, a group of rats (n=6) were dosed via oral gavage with test compound or vehicle (water) at a volume of 10 mL/kg. After dose administration animals were placed in individual metabolic cages where they were also fed the same chow in meal form and watered ad libitum. At 16 h post-dose, the urine samples were collected and fecal form was assessed by two independent observations. Fecal forms were scored according to a common scale associated with increasing fecal water to the wettest observation in the cage's collection funnel (1, normal pellet; 2, pellet adhering to sides of collection funnel due to moisture; 3, loss of normal pellet shape; 4, complete loss of shape with a blotting pattern; 5, liquid fecal streams evident). A rat's fecal form score (FFS) was determined by averaging both observational scores for all rats within a group (n=6). The vehicle group average was 1. For urine samples, the volumes were determined gravimetrically and centrifuged at 3,600×g. The supernatants were diluted 100-fold in deionized Milli-Q water then filtered through a 0.2 μm GHP Pall AcroPrep filter plate (Pall Life Sciences, Ann Arbor, Mich.) prior to analysis by ion chromatography. Ten microliters of each filtered extract was injected onto a Dionex ICS-3000 ion chromatograph system (Dionex, Sunnyvale, Calif.). Cations were separated by an isocratic method using 25 mM methanesulfonic acid as the eluent on an IonPac CS12A 2 mm i.d.×250 mm, 8 μm particle size cation exchange column (Dionex). Sodium was quantified using standards prepared from a cation standard mix containing Li^+, Na^+, NH4^+, K^+, Mg^2+, and Ca^2+ (Dionex). The mean mass of sodium urinated for every group in the 16 h period was determined with the vehicle group usually urinating approximately 21 mg sodium. The urine Na (uNa) for rats in the test groups were expressed as a percentage of the vehicle mean and the means were compared to that of the vehicle group by utilizing a one-way analysis of variance coupled with a Dunnett's post hoc test.

human NHE3 = biological target: T1, human NHE3 (Homo sapiens, UniProt P48764); experiment: Cell-based assay of NHE-3 activity (persistent inhibition), human; details: PS120 fibroblasts stably expressing human NHE3, 60 min incubation then washout; for IC50: read-out: pIC50 (human Persistence assay) (converted)
T1 sequence (P48764 26-834): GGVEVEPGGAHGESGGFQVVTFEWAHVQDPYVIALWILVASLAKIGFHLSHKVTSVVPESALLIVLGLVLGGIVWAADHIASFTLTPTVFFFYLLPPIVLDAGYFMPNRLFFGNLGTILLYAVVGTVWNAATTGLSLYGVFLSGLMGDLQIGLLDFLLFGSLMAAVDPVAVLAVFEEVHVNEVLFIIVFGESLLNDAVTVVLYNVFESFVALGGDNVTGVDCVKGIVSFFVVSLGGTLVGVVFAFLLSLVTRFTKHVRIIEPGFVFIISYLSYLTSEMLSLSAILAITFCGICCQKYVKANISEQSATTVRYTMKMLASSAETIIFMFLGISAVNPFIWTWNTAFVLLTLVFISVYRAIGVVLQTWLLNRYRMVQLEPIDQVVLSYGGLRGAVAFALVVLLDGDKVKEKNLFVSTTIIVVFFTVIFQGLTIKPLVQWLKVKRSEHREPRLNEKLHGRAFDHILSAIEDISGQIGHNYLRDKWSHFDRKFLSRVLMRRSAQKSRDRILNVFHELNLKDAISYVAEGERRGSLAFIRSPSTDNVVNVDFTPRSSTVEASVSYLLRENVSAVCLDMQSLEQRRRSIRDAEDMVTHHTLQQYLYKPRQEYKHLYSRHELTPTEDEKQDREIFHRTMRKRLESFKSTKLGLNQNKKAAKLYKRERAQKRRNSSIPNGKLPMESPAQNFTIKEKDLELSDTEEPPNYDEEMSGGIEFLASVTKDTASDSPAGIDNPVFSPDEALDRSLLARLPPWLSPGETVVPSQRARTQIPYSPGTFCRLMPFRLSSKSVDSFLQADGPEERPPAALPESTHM
Protocol: The ability of compounds to inhibit human and rat NHE-3-mediated Na^+-dependent H^+ antiport after application and washout was measured using a modification of the pH sensitive dye method described above. PS120 fibroblasts stably expressing human NHE3 were obtained from Mark Donowitz (Baltimore, Md.). Opossum kidney (OK) cells were obtained from the ATCC and propagated per their instructions. The rat NHE-3 gene was introduced into OK cells via electroporation, and cells were seeded into 96 well plates and grown overnight. Medium was aspirated from the wells, cells were washed once with NaCl-HEPES buffer (100 mM NaCl, 50 mM HEPES, 10 mM glucose, 5 mM KCl, 2 mM CaCl2, 1 mM MgCl2, pH 7.4), then overlayed with NaCl-HEPES buffer containing 0-30 μM test compound. After a 60 min incubation at room temperature, the test drug containing buffer was aspirated from the cells. Following aspiration, cells were washed once with NaCl-HEPES buffer without drug, then incubated for 30 min at 37° C. with NH4Cl-HEPES buffer (20 mM NH4Cl, 80 mM NaCl, 50 mM HEPES, 5 mM KCl, 2 mM CaCl2, 1 mM MgCl2, pH 7.4) containing 5 μM BCECF-AM. Cells were washed once with Ammonium free, Na^+-free HEPES (100 mM choline, 50 mM HEPES, 10 mM glucose, 5 mM KCl, 2 mM CaCl2, 1 mM MgCl2, pH 7.4) and incubated in the same buffer for 10 minutes at room temperature to lower intracellular pH. NHE-3-mediated recovery of neutral intracellular pH was initiated (10 min after compound washout) by addition of Na-HEPES buffer. […] Changes in intracellular pH were monitored using a FLIPR Tetra® (Molecular Devices, Sunnyvale, Calif.) by excitation at λex 439 to 505 nm, and measuring BCECF fluorescence at λem 538 nm. The initial rate of the fluorescence ratio change was used as a measure of NHE-mediated Na^+/H^+ activity, and reported as the change in fluorescence ratio per minute. Initial rates were plotted as the average 2 or more replicates, and pIC50 values were estimated using GraphPad Prism.

SMILES | % inhibition (human Persistence assay) (human NHE3) | IC50 (human NHE3) | FFS (fecal form score) ([1]; oral gavage 10 mg/kg) | response vs control in vivo at 10 mg/kg ([1]; oral gavage 10 mg/kg) | response vs control in vivo at 3 mg/kg ([1]; oral gavage 3 mg/kg) | FFS (fecal form score) ([1]; oral gavage 3 mg/kg)
CN(C)[C@H]1Cc2ccc(Cl)cc2[C@@H]1Oc1ccc(S(=O)(=O)NCCOCCOCCNC(=O)NCCCCNC(=O)NCCOCCOCCNS(=O)(=O)c2ccc(O[C@H]3c4cc(Cl)ccc4C[C@@H]3N(C)C)cc2)cc1 [Example 21] | C (>70%) | < 100 nM | – | > 75% | – | –
O=C(NCCCCNC(=O)NCCOCCOCCOCCNS(=O)(=O)c1ccc(O[C@H]2c3ccccc3C[C@@H]2N2CCCCC2)cc1)NCCOCCOCCOCCNS(=O)(=O)c1ccc(O[C@H]2c3ccccc3C[C@@H]2N2CCCCC2)cc1 [Example 16] | B (40-70%) | > 1000 nM | – | < 35% | – | –
N[C@@H]1CCCN([C@H]2Cc3c(Cl)cc(Cl)cc3[C@@H]2Oc2ccc(S(=O)(=O)NCCOCCOCCNC(=O)NCCCCNC(=O)NCCOCCOCCNS(=O)(=O)c3ccc(O[C@H]4c5cc(Cl)cc(Cl)c5C[C@@H]4N4CCC[C@@H](N)C4)cc3)cc2)C1 [Example 3, (S,S,R)—N,N′-(10,17-dioxo-3,6,21,24-tetraoxa-9,11,16,18-tetraazahexacosane-1,26-diyl)bis(4-((1S,2S)-2-((R)-3-aminopiperidin-1-yl)-4,6-dichloro-2,3-dihydro-1H-inden-1-yloxy)benzenesulfonamide)] | C (>70%) | < 100 nM | – | 35 to 75% | – | –
CN(C)[C@H]1Cc2ccccc2[C@@H]1Oc1ccc(S(=O)(=O)NCCOCCOCCNC(=O)NCCCCNC(=O)NCCOCCOCCNS(=O)(=O)c2ccc(O[C@H]3c4ccccc4C[C@@H]3N(C)C)cc2)cc1 [Example 20] | B (40-70%) | < 100 nM | – | 35 to 75% | – | –
CN(C)[C@H]1Cc2c(Cl)cc(Cl)cc2[C@@H]1Oc1ccc(S(=O)(=O)NCCOCCOCCNC(=O)NCCCCNC(=O)NCCOCCOCCNS(=O)(=O)c2ccc(O[C@H]3c4cc(Cl)cc(Cl)c4C[C@@H]3N(C)C)cc2)cc1 [Example 1, (S,S)—N,N′-(10,17-dioxo-3,6,21,24-tetraoxa-9,11,16,18-tetraazahexacosane-1,26-diyl)bis(4-((1S,2S)-4,6-dichloro-2-(dimethylamino)-2,3-dihydro-1H-inden-1-yloxy)benzenesulfonamide)] | C (>70%) | < 100 nM | 1 | < 35% | – | –
O=C(NCCCCNC(=O)NCCOCCOCCNS(=O)(=O)c1ccc(O[C@H]2c3cc(F)ccc3C[C@@H]2N2CCCCC2)cc1)NCCOCCOCCNS(=O)(=O)c1ccc(O[C@H]2c3cc(F)ccc3C[C@@H]2N2CCCCC2)cc1 [Example 23] | C (>70%) | 100 to 1000 nM | 1 | > 75% | – | –
CN(C)[C@H]1Cc2c(Cl)cc(Cl)cc2[C@@H]1Oc1ccc(S(=O)(=O)NCCOCCOCCNC(=O)COCC(=O)NCCOCCOCCNS(=O)(=O)c2ccc(O[C@H]3c4cc(Cl)cc(Cl)c4C[C@@H]3N(C)C)cc2)cc1 [Example 9, 2,2′-oxybis(N-(2-(2-(2-(4-((1S,2S)-4,6-dichloro-2-(dimethylamino)-2,3-dihydro-1H-inden-1-yloxy)phenylsulfonamido)ethoxy)ethoxy)ethyl)acetamide)] | C (>70%) | 100 to 1000 nM | – | – | 35 to 75% | 2
O=C(NCCCCNC(=O)NCCOCCOCCNC(=O)Nc1cccc(O[C@H]2c3ccccc3C[C@@H]2N2CCCCC2)c1)NCCOCCOCCNC(=O)Nc1cccc(O[C@H]2c3ccccc3C[C@@H]2N2CCCCC2)c1 [Example 13, 1-{2-[2-(2-{[(3-{[(1S,2S)-2-(piperidin-1-yl)-2,3-dihydro-1H-inden-1-yl]oxy}phenyl)carbamoyl]amino}ethoxy)ethoxy]ethyl}-3-{4-[({2-[2-(2-{[(3-{[(1S,2S)-2-(piperidin-1-yl)-2,3-dihydro-1H-inden-1-yl]oxy}phenyl)carbamoyl]amino}ethoxy)ethoxy]ethyl}carbamoyl)amino]butyl}urea] | A (NHE3 <40%) | > 1000 nM | – | > 75% | – | –

Further lines, with some results ahead:

% inhibition (human Persistence assay) (human NHE3) | IC50 (human NHE3) | SMILES | FFS (fecal form score) ([1]; oral gavage 10 mg/kg) | response vs control in vivo at 10 mg/kg ([1]; oral gavage 10 mg/kg) | response vs control in vivo at 3 mg/kg ([1]; oral gavage 3 mg/kg) | FFS (fecal form score) ([1]; oral gavage 3 mg/kg)
C (>70%) | 100 to 1000 nM | CN(C)[C@H]1Cc2c(Cl)cc(Cl)cc2[C@@H]1Oc1ccc(S(=O)(=O)NCCOCCOCCNC(=O)C(C)(C)C(=O)NCCOCCOCCNS(=O)(=O)c2ccc(O[C@H]3c4cc(Cl)cc(Cl)c4C[C@@H]3N(C)C)cc2)cc1 [Example 36] | 2 | 35 to 75% | – | –
C (>70%) | < 100 nM | O=C(NCCCCNC(=O)NCCOCCOCCNS(=O)(=O)c1ccc(O[C@H]2c3cc(Cl)cc(F)c3C[C@@H]2N2CCCCC2)cc1)NCCOCCOCCNS(=O)(=O)c1ccc(O[C@H]2c3cc(Cl)cc(F)c3C[C@@H]2N2CCCCC2)cc1 [Example 24] | – | > 75% | – | –
C (>70%) | < 100 nM | O=C(NCCCCNC(=O)NCCOCCOCCNS(=O)(=O)c1ccc(O[C@H]2c3cc(Cl)cc(Cl)c3C[C@@H]2N2CC[C@@H](O)C2)cc1)NCCOCCOCCNS(=O)(=O)c1ccc(O[C@H]2c3cc(Cl)cc(Cl)c3C[C@@H]2N2CC[C@@H](O)C2)cc1 [Example 30] | – | – | 35 to 75% | –
C (>70%) | < 100 nM | CN(C)[C@H]1Cc2c(F)cc(Cl)cc2[C@@H]1Oc1ccc(S(=O)(=O)NCCOCCOCCNC(=O)NCCCCNC(=O)NCCOCCOCCNS(=O)(=O)c2ccc(O[C@H]3c4cc(Cl)cc(F)c4C[C@@H]3N(C)C)cc2)cc1 [Example 25] | – | > 75% | – | –
